Like-named read-outs stand apart in the source and are kept apart here.
Experiments:
Type in all cases: in vitro ADME
[1] = Metabolic stability in pooled human liver microsomes; details: human liver microsomes 0.5 mg/mL, 1 μM compound, 37° C.
CYP1A = target: T1, CYP1A (Homo sapiens, UniProt P05177); assay: CYP inhibition in human liver microsomes, CYP1A; details: probe phenacetin, substrate phenacetin, read-out: CYP1A Inh %
T1 construct: incubated with human liver microsomes; from tissue; host or cells: human liver microsomes
T1 sequence (P05177 whole entry): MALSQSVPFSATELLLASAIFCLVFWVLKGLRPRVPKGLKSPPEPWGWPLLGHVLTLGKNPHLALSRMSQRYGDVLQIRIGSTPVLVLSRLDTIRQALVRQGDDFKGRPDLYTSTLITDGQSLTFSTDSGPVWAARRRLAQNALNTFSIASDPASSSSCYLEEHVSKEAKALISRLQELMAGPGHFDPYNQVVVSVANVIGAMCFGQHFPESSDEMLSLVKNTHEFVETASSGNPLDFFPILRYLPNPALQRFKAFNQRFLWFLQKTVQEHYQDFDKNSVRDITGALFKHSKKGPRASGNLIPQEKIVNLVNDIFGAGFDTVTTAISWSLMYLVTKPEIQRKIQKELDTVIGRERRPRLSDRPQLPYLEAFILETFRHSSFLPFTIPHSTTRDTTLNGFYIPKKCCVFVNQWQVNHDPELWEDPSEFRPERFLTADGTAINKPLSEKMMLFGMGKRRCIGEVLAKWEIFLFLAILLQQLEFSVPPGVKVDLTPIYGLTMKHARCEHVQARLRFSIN

CYP2B6 = target: T2, CYP2B6 (Homo sapiens, UniProt P20813); assay: CYP inhibition in human liver microsomes, CYP2B6; details: probe bupropion, substrate bupropion, read-out: CYP2B6 Inh %
T2 construct: incubated with human liver microsomes; from tissue; host or cells: human liver microsomes
T2 sequence (P20813 1-491): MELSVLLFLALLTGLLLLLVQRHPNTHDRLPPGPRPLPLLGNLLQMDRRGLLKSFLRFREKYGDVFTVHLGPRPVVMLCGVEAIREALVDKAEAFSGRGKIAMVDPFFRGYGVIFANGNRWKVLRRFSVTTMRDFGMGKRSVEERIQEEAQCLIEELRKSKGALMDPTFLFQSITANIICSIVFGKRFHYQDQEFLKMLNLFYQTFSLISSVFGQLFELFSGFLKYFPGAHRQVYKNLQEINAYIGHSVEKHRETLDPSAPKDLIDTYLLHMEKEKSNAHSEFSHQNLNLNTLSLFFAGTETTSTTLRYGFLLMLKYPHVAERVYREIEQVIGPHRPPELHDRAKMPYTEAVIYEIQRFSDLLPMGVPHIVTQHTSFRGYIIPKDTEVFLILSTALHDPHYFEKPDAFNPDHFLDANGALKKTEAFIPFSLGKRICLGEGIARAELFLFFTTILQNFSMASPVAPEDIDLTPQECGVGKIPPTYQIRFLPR

CYP2C19 = target: T3, CYP2C19 (Homo sapiens, UniProt P33261); assay: CYP inhibition in human liver microsomes, CYP2C19; details: probe omeprazole, substrate omeprazole, read-out: CYP2C19 Inh %
T3 construct: incubated with human liver microsomes; from tissue; host or cells: human liver microsomes
T3 sequence (P33261 whole entry): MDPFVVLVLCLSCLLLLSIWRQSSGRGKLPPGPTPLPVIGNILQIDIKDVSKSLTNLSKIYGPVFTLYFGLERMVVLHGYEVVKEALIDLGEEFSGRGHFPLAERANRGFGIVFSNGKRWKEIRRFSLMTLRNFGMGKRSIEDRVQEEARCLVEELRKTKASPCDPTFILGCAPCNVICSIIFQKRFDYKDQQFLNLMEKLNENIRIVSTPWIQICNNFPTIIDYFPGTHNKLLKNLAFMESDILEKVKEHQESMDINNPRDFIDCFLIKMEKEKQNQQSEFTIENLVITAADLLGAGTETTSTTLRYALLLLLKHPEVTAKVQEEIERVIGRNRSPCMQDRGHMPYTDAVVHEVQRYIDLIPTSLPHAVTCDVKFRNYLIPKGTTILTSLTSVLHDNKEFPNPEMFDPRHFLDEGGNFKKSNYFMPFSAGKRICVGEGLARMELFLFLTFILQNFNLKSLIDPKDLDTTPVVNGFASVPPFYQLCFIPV

CYP2C8 = target: T4, CYP2C8 (Homo sapiens, UniProt P10632); assay: CYP inhibition in human liver microsomes, CYP2C8; details: probe paclitaxel and amodiaquine, substrates paclitaxel and amodiaquine, read-out: CYP2C8 Inh %
T4 construct: incubated with human liver microsomes; from tissue; host or cells: human liver microsomes
T4 sequence (P10632 1-490): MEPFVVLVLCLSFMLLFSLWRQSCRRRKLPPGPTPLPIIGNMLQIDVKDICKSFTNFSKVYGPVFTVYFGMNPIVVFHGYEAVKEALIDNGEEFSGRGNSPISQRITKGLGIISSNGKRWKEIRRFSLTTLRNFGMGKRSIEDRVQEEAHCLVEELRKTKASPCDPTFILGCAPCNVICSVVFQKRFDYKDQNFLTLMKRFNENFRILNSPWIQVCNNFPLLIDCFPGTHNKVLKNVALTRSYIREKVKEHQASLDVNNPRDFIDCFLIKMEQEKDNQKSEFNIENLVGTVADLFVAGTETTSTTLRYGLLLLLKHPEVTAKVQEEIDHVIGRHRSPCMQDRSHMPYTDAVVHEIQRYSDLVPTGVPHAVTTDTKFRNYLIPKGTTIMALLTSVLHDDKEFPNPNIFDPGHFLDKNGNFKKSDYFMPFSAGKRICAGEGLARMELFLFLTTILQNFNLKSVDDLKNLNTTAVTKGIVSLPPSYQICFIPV

CYP2D6 = target: T5, CYP2D6 (Homo sapiens, UniProt P10635); assay: CYP inhibition in human liver microsomes, CYP2D6; details: probe dextromethorphan, substrate dextromethorphan, read-out: CYP2D6 Inh %
T5 construct: incubated with human liver microsomes; from tissue; host or cells: human liver microsomes
T5 sequence (P10635 whole entry): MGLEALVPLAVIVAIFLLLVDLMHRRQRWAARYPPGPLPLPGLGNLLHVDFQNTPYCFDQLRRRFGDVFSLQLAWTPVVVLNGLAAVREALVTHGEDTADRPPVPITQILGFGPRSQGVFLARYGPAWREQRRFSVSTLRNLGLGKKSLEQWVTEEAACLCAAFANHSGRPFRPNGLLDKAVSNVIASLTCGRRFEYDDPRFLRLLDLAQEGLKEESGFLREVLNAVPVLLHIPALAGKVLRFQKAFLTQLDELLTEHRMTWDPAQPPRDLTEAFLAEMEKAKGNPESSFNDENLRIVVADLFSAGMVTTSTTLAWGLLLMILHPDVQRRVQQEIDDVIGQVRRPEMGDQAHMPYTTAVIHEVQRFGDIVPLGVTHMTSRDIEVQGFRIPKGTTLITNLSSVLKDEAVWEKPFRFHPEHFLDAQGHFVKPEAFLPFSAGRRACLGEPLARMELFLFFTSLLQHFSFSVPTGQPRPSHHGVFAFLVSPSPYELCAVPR

CYP3A4&5 = assay: CYP inhibition in human liver microsomes, CYP3A4&5 testosterone; details: probe testosterone, substrate testosterone, read-out: CYP3A4&5 testosterone Inh %
CYP2C9 = CYP2C9 (Homo sapiens, UniProt P11712); assay: CYP inhibition in human liver microsomes, CYP2C9; parameters: incubated with human liver microsomes; from tissue; host or cells: human liver microsomes; details: probe diclofenac, substrate diclofenac, read-out: CYP2C9 Inh %
CYP2C9, sequence (P11712 whole entry): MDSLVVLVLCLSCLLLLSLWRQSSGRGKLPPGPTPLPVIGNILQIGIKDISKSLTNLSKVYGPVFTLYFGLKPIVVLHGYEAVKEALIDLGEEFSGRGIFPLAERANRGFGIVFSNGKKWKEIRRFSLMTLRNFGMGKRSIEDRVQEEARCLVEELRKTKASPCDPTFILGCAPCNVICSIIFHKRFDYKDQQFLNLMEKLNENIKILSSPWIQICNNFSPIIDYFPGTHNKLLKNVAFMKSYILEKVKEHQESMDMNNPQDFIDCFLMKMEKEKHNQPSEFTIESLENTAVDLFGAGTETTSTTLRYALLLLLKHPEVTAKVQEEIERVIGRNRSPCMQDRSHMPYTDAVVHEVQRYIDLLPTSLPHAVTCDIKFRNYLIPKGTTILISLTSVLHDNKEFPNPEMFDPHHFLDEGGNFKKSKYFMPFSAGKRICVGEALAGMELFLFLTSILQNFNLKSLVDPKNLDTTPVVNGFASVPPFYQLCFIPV

CYP3A4 = CYP3A4 (Homo sapiens, UniProt P08684); assay: CYP inhibition in human liver microsomes, CYP3A4 midazolam; parameters: incubated with human liver microsomes; from tissue; host or cells: human liver microsomes; details: probe midazolam, substrate midazolam, read-out: CYP3A4 midazolam Inh %
CYP3A4, sequence (P08684 whole entry): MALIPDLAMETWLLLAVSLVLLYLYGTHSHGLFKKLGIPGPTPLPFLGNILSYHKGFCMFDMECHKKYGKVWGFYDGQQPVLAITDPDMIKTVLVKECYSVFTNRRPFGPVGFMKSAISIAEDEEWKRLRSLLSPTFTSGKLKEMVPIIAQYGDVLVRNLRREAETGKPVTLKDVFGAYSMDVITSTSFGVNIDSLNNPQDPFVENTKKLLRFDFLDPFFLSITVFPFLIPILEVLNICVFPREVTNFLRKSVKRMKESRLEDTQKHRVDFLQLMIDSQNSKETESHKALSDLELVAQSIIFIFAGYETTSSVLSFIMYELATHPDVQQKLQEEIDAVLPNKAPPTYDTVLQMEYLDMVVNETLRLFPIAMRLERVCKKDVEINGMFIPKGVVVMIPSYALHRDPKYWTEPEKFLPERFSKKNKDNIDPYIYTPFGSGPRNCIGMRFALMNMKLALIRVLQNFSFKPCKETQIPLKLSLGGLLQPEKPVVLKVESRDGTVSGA

[2] = with 1 mM NADPH, read-out: T1/2, + NaDPH
[3] = without NADPH, read-out: T1/2, no NaDPH

Row | Compound | half-life at 1 μM [1, 2] | half-life at 1 μM [1, 3] | inhibition at 10 µM (CYP1A) | inhibition at 10 µM (CYP2B6) | inhibition at 10 µM (CYP2C19) | inhibition at 10 µM (CYP2C8) | inhibition at 10 µM (CYP2D6) | inhibition at 10 µM (CYP3A4&5) | inhibition at 10 µM (CYP2C9) | inhibition at 10 µM (CYP3A4)
1 | CC(C)Cc1ccc(S(=O)(=O)NC(=O)OCCO)c(-c2ccc(Cn3ccnc3C(C)(C)C)cc2)c1 [Example 16, 2-Hydroxyethyl (4′-((2-(tert-butyl)-1H-imidazol-1-yl)methyl)-5-isobutyl-[1,1′-biphenyl]-2-yl)sulfonylcarbamate] | > 60 min | > 60 min | – | – | – | – | – | – | – | –
2 | COC(=O)NS(=O)(=O)c1ccc(CC(C)C)cc1-c1ccc(Cn2ccnc2C(C)(C)C)c(F)c1 [Example 5, Methyl ((4′-((2-(tert-butyl)-1H-imidazol-1-yl)methyl)-3′-fluoro-5-isobutyl-[1,1′-biphenyl]-2-yl)sulfonyl)carbamate] | > 60 min | > 60 min | -13.1% | 26.2% | 34.4% | 87.9% | 17.7% | 15.1% | 72% | 3.8%
3 | CCOC(=O)NS(=O)(=O)c1ccc(CC(C)C)cc1-c1ccc(Cn2ccnc2C)c(F)c1 [Example 12, Ethyl ((3′-fluoro-5-isobutyl-4′-((2-methyl-1H-imidazol-1-yl)methyl)-[1,1′-biphenyl]-2-yl)sulfonyl)carbamate] | > 60 min | 50 min | 5.9% | 18.9% | 50.7% | 39.7% | 2.9% | 12.6% | 52.6% | 8.6%
4 | CCCCOC(=O)NS(=O)(=O)c1ccc(CC(C)C)cc1-c1ccc(Cn2ccnc2C)c(F)c1 [Example 10, Butyl ((3′-fluoro-5-isobutyl-4′-((2-methyl-1H-imidazol-1-yl)methyl)-[1,1′-biphenyl]-2-yl)sulfonyl)carbamate] | 32 min | 35 min | 3.2% | 31.8% | 54.9% | 46.9% | -12.9% | 24.5% | 68.6% | 11.5%
5 | CCOC(=O)NS(=O)(=O)c1ccc(CC(C)C)cc1-c1ccc(Cn2ccnc2CC)c(F)c1 [Example 14, Ethyl ((4′-((2-ethyl-1H-imidazol-1-yl)methyl)-3′-fluoro-5-isobutyl-[1,1′-biphenyl]-2-yl)sulfonyl)carbamate] | 43 min | 46 min | 9.4% | 20.6% | 40.9% | 57.6% | 0.1% | 21.9% | 68% | -4.2%
6 | COC(=O)NS(=O)(=O)c1ccc(CC(C)C)cc1-c1ccc(Cn2ccnc2C(C)C)c(F)c1 [Example 9, Methyl ((3′-fluoro-5-isobutyl-4′-((2-isopropyl-1H-imidazol-1-yl)methyl)-[1,1′-biphenyl]-2-yl)sulfonyl)carbamate] | > 60 min | > 60 min | 2.5% | 28.2% | 27.2% | 77.2% | -2.4% | 17.5% | 37.9% | -4.9%
7 | CCCCOC(=O)NS(=O)(=O)c1ccc(CC(C)C)cc1-c1ccc(Cn2ccnc2CC)c(F)c1 [Example 11, Butyl ((4′-((2-ethyl-1H-imidazol-1-yl)methyl)-3′-fluoro-5-isobutyl-[1,1′-biphenyl]-2-yl)sulfonyl)carbamate] | 26 min | 26 min | 4.3% | 35% | 59.3% | 61.3% | 0.3% | 30.5% | 81.3% | 5.6%
8 | COC(=O)NS(=O)(=O)c1ccc(CC(C)C)cc1-c1ccc(Cn2ccnc2C)c(F)c1 [Example 13, Methyl ((3′-fluoro-5-isobutyl-4′-((2-methyl-1H-imidazol-1-yl)methyl)-[1,1′-biphenyl]-2-yl)sulfonyl)carbamate] | > 60 min | > 60 min | 7.6% | 18.4% | 24.6% | 27.7% | -0.8% | 14.5% | 32.3% | 9.3%
9 | CCOC(=O)NS(=O)(=O)c1ccc(CC(C)C)cc1-c1ccc(Cn2ccnc2C(C)(C)C)c(F)c1 [Example 6, Ethyl ((4′-((2-(tert-butyl)-1H-imidazol-1-yl)methyl)-3′-fluoro-5-isobutyl-[1,1′-biphenyl]-2-yl)sulfonyl)carbamate] | 12 min | 14 min | 8.6% | 26.4% | 49.3% | 53% | 33.1% | 31% | 72.2% | 19.9%
10 | CCOC(=O)NS(=O)(=O)c1ccc(CC(C)C)cc1-c1ccc(Cn2ccnc2C(C)C)c(F)c1 [Example 8, Ethyl ((3′-fluoro-5-isobutyl-4′-((2-isopropyl-1H-imidazol-1-yl)methyl)-[1,1′-biphenyl]-2-yl)sulfonyl)carbamate] | 36 min | 35 min | 10.4% | 32% | 33.7% | 76.7% | 1.2% | 19.4% | 50% | -4.7%
11 | CCCCOC(=O)NS(=O)(=O)c1ccc(CC(C)C)cc1-c1ccc(Cn2ccnc2C(C)C)c(F)c1 [Example 7, Butyl ((3′-fluoro-5-isobutyl-4′-((2-isopropyl-1H-imidazol-1-yl)methyl)-[1,1′-biphenyl]-2-yl)sulfonyl)carbamate] | 18 min | 20 min | 6.3% | 52.2% | 59.3% | 73.9% | -4.1% | 29.7% | 80.7% | 9.7%
12 | CCc1nccn1Cc1ccc(-c2cc(CC(C)C)ccc2S(=O)(=O)NC(=O)OC)cc1F [Example 15, Methyl ((4′-((2-ethyl-1H-imidazol-1-yl)methyl)-3′-fluoro-5-isobutyl-[1,1′-biphenyl]-2-yl)sulfonyl)carbamate] | > 60 min | > 60 min | 7% | 16.1% | 21.5% | 52.4% | 2.2% | 18.4% | 59.6% | -5.3%
